#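 96-well plates; 48 h exposure; 5 concentrations. Endpoints by linear interpolation between flanking doses. Not reached: highest tested concentration assigned. GI50 = concentration required for 50% inhibition of growth.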 Activity calls are given as the source filed them. Rule as the data show it: active = GI50 up to about 1.1 µM and inactive = higher.
# Tests used:
# Test in all cases: growth of human tumour cells (NCI), 48 h
# [1] = test system: UACC-62
# [2] = test system: LXFL 529
# [3] = test system: HCC 2998
# [4] = test system: UO-31
# [5] = test system: K562
# [6] = test system: NCI-H460
# [7] = test system: SNB-75
# [8] = test system: Malme-3M
# [9] = test system: CAKI-1
# [10] = test system: LOX IMVI
# [11] = test system: NCI-H226
# [12] = test system: XF498
# [13] = test system: RXF 631
# [14] = test system: SR
# [15] = test system: SF-268
# [16] = test system: SK-MEL-5
# [17] = test system: RXF 393
# [18] = test system: OVCAR-8
# [19] = test system: 786-0
# [20] = test system: SW-620
# [21] = test system: HCT-116
# [22] = test system: U-251
# [23] = test system: DLD-1
# [24] = test system: HOP-18
# [25] = test system: MOLT-4
# [26] = test system: M14
# [27] = test system: SK-MEL-2
# [28] = test system: OVCAR-4
# [29] = test system: SNB-78
# [30] = test system: SK-MEL-28
# [31] = test system: HCT-15
# [32] = test system: SF-295
# [33] = test system: TK-10
# [34] = test system: M19-MEL
# [35] = test system: HT-29
# [36] = test system: IGROV-1
# [37] = test system: ACHN
# [38] = test system: NCI-H23
# [39] = test system: KM-20L2
# [40] = test system: DMS-114
# [41] = test system: SF-539
# [42] = test system: SN12C
# [43] = test system: OVCAR-3
# [44] = test system: NCI-H522
# [45] = test system: A549
# [46] = test system: DMS-273
# [47] = test system: HOP-62
# [48] = test system: SNB-19
# [49] = test system: COLO 205
# [50] = test system: OVCAR-5
# [51] = test system: KM12
# [52] = test system: RPMI-8226
smiles,measurement,setting,value
O=C(c1ccccc1)[C@H]1Nc2ccc(Cl)cc2[C@H]2CCC[C@@H]12,GI50,[1],25.8 µM (inactive)
same,GI50,[2],17.9 µM (inactive)
same,GI50,[3],30.5 µM (inactive)
same,GI50,[4],17.8 µM (inactive)
same,GI50,[5],15.4 µM (inactive)
same,GI50,[6],24.5 µM (inactive)
same,GI50,[7],21.7 µM (inactive)
same,GI50,[8],22 µM (inactive)
same,GI50,[9],59.8 µM (inactive)
same,GI50,[10],6.85 µM (inactive)
same,GI50,[11],13.6 µM (inactive)
same,GI50,[12],17.1 µM (inactive)
same,GI50,[13],36.1 µM (inactive)
same,GI50,[14],7.21 µM (inactive)
same,GI50,[15],31.7 µM (inactive)
same,GI50,[16],10.3 µM (inactive)
same,GI50,[17],14.8 µM (inactive)
same,GI50,[18],23.3 µM (inactive)
same,GI50,[19],44.9 µM (inactive)
same,GI50,[20],27.9 µM (inactive)
same,GI50,[21],13.2 µM (inactive)
same,GI50,[22],35.6 µM (inactive)
same,GI50,[23],21.8 µM (inactive)
same,GI50,[24],12.3 µM (inactive)
same,GI50,[25],5.7 µM (inactive)
same,GI50,[26],11.7 µM (inactive)
same,GI50,[27],19.7 µM (inactive)
same,GI50,[28],26.2 µM (inactive)
same,GI50,[29],51.3 µM (inactive)
same,GI50,[30],19.4 µM (inactive)
same,GI50,[31],25.1 µM
same,GI50,[32],32.1 µM (inactive)
same,GI50,[33],30.6 µM (inactive)
same,GI50,[34],27.6 µM (inactive)
same,GI50,[35],21 µM (inactive)
same,GI50,[36],> 100 µM (inactive)
same,GI50,[37],13.3 µM (inactive)
same,GI50,[38],23.9 µM (inactive)
same,GI50,[39],26.9 µM (inactive)
same,GI50,[40],23.6 µM (inactive)
same,GI50,[41],33.2 µM (inactive)
same,GI50,[42],14.6 µM (inactive)
same,GI50,[43],27.2 µM (inactive)
same,GI50,[44],23.3 µM (inactive)
same,GI50,[45],42 µM (inactive)
same,GI50,[46],36.1 µM (inactive)
same,GI50,[47],> 100 µM (inactive)
same,GI50,[48],> 100 µM (inactive)
same,GI50,[49],25.1 µM (inactive)
same,GI50,[50],23.7 µM (inactive)
same,GI50,[51],49.1 µM (inactive)
same,GI50,[52],11.9 µM (inactive)

# From ChEMBL document CHEMBL1201862, “PubChem BioAssay data set” (2004)
